Experimental data: article PMC10550821, “Cryo-EM structures reveal native GABAA receptor assemblies and pharmacology” (Nature, 2023)

Tests used:
[1] = molecular target: T1, GABAA receptor α1 subunit (native α1*-β2-α1-β2*-γ2 nα1-GABAAR) (Mus musculus, UniProt P22723+P62812); experiment: cryo-EM structure; competitive [3H]flunitrazepam scintillation proximity assay; format: binding
T1 construct: gene Gabra1; main assembly alpha1/beta2/gamma2

[2] = molecular target: T2, GABAA receptor α1 subunit (native α1-containing receptors, nα1-GABAARs) (Mus musculus, UniProt P22723+P62812); experiment: radioligand binding, scintillation proximity assay
T2 construct: gene Gabra1; native receptor ensemble purified from mouse brain (cerebellum excluded) in nanodiscs; with GABAA receptor γ2 subunit (Gabrg2); β2 subunit (Gabrb2) in the main assembly

[3] = molecular target: T3, GABAA receptor α1 subunit, as it stood in the measurement of the Kd of 8E3-GFP Fab (sample not stated) (Mus musculus (assumed; mature rat chain …, UniProt P62812); experiment: not stated; dissociation constant of 8E3-GFP Fab, printed with a pointer to Extended Data Fig. 1; method and sample not told
T3 construct: GABAA receptor subunit alpha-1; the Kd may come from such a sample

## Cc1ccc(-c2nc3ccc(C)cn3c2CC(=O)N(C)C)cc1 [ZOL, zolpidem]
[1]
  Ki: 22.9 ± 2.7 nM

## CN1C(=O)CN=C(c2ccccc2F)c2cc([N+](=O)[O-])ccc21 [flunitrazepam]
[2]
  Kd: 6 ± 0.2 nM

B1: 8E3-GFP Fab (α1 subunit-specific Fab fragment of mouse monoclonal antibody 8E3, with 3C site, EGFP and twin-strep II tag on the heavy chain) (Fab, V domains shown)
VH: EIQLQQSGPELVKPGTSVKVSCKASGYSFTDYNMYWVKQSHGKSLEWIGYIDPYNADTTYNREFKGKATLTVDKSSSTAFMHLNSLTSEDSAVYYCARKRNNFYFDYWGQGTPLTVSS
VL: YIVMTQSPKSMSMSLGERVTLSCRASEYVGSYVSWYQQKPEQSPKLLIYGASNRYTGVPDRFAGSGSATDFTLTITSVQAEDLADYHCGQTYNYPTFGGGTKLEIK
notes: Fab heavy chain of 8E3; Fab light chain of 8E3; Both chains were expressed with an N-terminal GP64 signal peptide; also called α1-specific Fab; source: Sf9, recombinant baculovirus, secreted into the supernatant, purified (streptactin column); not shown: EGFP, C-terminal, kept; twin-strep II, C-terminal, kept
[3]
  Kd: 0.5 nM
